Measurements taken from PubChem BioAssay (NCI).
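Grown in 96-well plates, cells were treated for 48 hours with each compound at five concentrations. Insufficient inhibition: endpoint recorded as highest concentration tested. Definition used: TGI = concentration required for complete inhibition of growth.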

Key:
Test in all cases: NCI anticancer screen, dose series, 48 h
COLO 205 colon = system: COLO 205 colon
RXF 393 renal = system: RXF 393 renal
EKVX NSCLC = system: EKVX NSCLC
NCI-H460 lung = system: NCI-H460 lung
T-47D breast = system: T-47D breast
SNB-75 CNS = system: SNB-75 CNS
BT-549 breast = system: BT-549 breast
DU-145 prostate = system: DU-145 prostate
NCI-H226 lung = system: NCI-H226 lung
SK-MEL-5 melanoma = system: SK-MEL-5 melanoma
SR leukemia = system: SR leukemia

SMILES | TGI (COLO 205 colon) [µM] | TGI (RXF 393 renal) [µM] | TGI (EKVX NSCLC) [µM] | TGI (NCI-H460 lung) [µM] | TGI (T-47D breast) [µM] | TGI (SNB-75 CNS) [µM] | TGI (BT-549 breast) [µM] | TGI (DU-145 prostate) [µM] | TGI (NCI-H226 lung) [µM] | TGI (SK-MEL-5 melanoma) [µM] | TGI (SR leukemia) [µM]
CCOC(=O)c1nnsc1NC(=O)Nc1ccc(Cl)cc1 | > 100 | > 100 | > 100 | 32.1 | > 100 | 88 | > 100 | > 100 | > 100 | > 100 | 
COc1cc(C)cc2c1C(=O)C(Br)=CC2=O | 3.23 | 8.36 | 33.4 | 38.4 | 4.75 | 31.7 | 23.2 | 32.4 | 32.3 | 25.1 | 
O=C1C(Cl)C(c2ccc(Cl)cc2)N1n1cnc2ccccc2c1=O (stereo unspecified) | > 100 | > 100 | 82.4 | > 100 |  | > 100 |  |  | > 100 | > 100 | > 100
CC1(C)C=[N+]([O-])C(C)(C)N1 | > 100 | > 100 | > 100 | > 100 | > 100 | > 100 |  | > 100 | > 100 | > 100 | > 100
CO/C(=N\N=C\c1ccc(OC)cc1OC)c1ccncc1 | > 10 | > 10 |  | > 10 | > 10 | > 10 |  |  | > 10 | > 10 | > 10
COc1ccc(-n2c3c(c4cc(O)ccc42)C(=O)c2ccccc2C3=O)cc1 | > 100 | 18 | 43 | > 100 | > 100 |  | 31.5 | > 100 |  | > 100 | 56.9
CO[C@@](c1ccccc1)(c1nc(C#N)c(N)o1)C(F)(F)F | > 100 | > 100 | > 100 |  | > 100 | > 100 |  | > 100 | > 100 | > 100 | 
CC(=O)c1c(O)ccc2c1CC(CC=O)O2 (stereo unspecified) | > 100 | > 100 |  | > 100 |  | > 100 |  |  | > 100 | > 100 | > 100
CC1=CC2(O)OC3(CC2=C(C)C)C(C)CCC13 (stereo unspecified) | > 100 | > 100 | > 100 |  | > 100 | > 100 | > 100 | > 100 | > 100 | > 100 | 
Cn1c2ccccc2c(=O)c2c(O)cc3c(c21)C=CC1(CCCC1)O3 | > 100 | > 100 | > 100 | > 100 |  | > 100 | > 100 | > 100 | > 100 | > 100 | > 100
NC(=O)C12C3C4C1C1C2C3C41C(N)=O (stereo unspecified) | > 100 | > 100 | > 100 | > 100 |  | > 100 |  |  | > 100 | > 100 | 
